Assay results taken from article PMC5783810 (Saudi Pharmaceutical Journal : SPJ, 2017).
Converted amounts (≈) assume the structure as drawn.

assay: Water solubility; conditions: relative to trolox (0.1 g/L)

fold increase in water solubility relative to trolox | Molecule
20–590 fold | 6-Hydroxy-2,5,7,8-tetramethylchromane-2-carboxylate, 1-(1H-indol-3-yl)-N,N-dimetilmetanammonium [2q]
20–590 fold | 6-Hydroxy-2,5,7,8-tetramethylchromane-2-carboxylate, 3-(3,4-dimethoxybenzoate)-8-ammoniybicyclo[3.2.1]octane [2m]
20–590 fold | 6-Hydroxy-2,5,7,8-tetramethylchromane-2-carboxylate, 4-(N-acetylantranoiloxy)-8,9-dihydroxy-1α,14α,16β-trimethoxy-N-ethylammonium-18-norakonan [2p]

More lines, now with the values behind:

Molecule | fold increase in water solubility relative to trolox
6-Hydroxy-2,5,7,8-tetramethylchromane-2-carboxylate 1-oxyl-2,2,5,5-tetramethylpirrolidin-4-ammonium [2h] | 20 fold
6-Hydroxy-2,5,7,8-tetramethylchromane-2-carboxylate 1-oxyl-2,2,6,6-tetramethylpiperidine-4-ammonium [2g] | 10 fold
Cc1c(C)c2c(c(C)c1O)CCC(C)(C(=O)O)O2.O=c1cccc2n1CC1CNCC2C1 (stereo not drawn) [2l, 6-Hydroxy-2,5,7,8-tetramethylchromane-2-carboxylate, 1,2,3,4,5,6-hexahydro-1,5-methano-8H-pyridinium-[1,2-α][1,5]-diazotsin-8-one] | 20–590 fold

same assay, conditions: water, thermodynamic from solid

Molecule | solubility at 10 min
CCN(CC)CC.Cc1c(C)c2c(c(C)c1O)CCC(C)(C(=O)O)O2 (centres unmarked) [2n, 6-Hydroxy-2,5,7,8-tetramethylchromane-2-carboxylate, triethylammonium] | 3000 µg/mL
Cc1c(C)c2c(c(C)c1O)CCC(C)(C(=O)O)O2 (centres unmarked) [compound 1, 6-hydroxy-2,5,7,8-tetra methyl chromane-2-carboxylic acid, reference compound] | 100 µg/mL (≈ 400 µM)
